Measured values from PMC9182199, “Borylated 2,3,4,5-Tetrachlorophthalimide and Their 2,3,4,5-Tetrachlorobenzamide Analogues: Synthesis, Their Glycosidase Inhibition and Anticancer Properties in View to Boron Neutron Capture Therapy” (Molecules, 2022).
Read-outs that look alike come from different tables or passages of the source.

Columns and labels:
[1] = test system: bovine liver β-glucuronidase; experiment: Glycosidase inhibition, laboratory 2: bovine liver β-glucuronidase; type: biochemical; conditions: water
Procedure: All enzymes and para-nitrophenyl substrates were purchased from Sigma. Enzymes were assayed at 27 °C in 0.1 M citric acid/0.2 M disodium hydrogen phosphate buffers at the optimum pH for the enzyme. The incubation mixture consisted of 10 μL enzyme solution, 10 μL of 1 mg/mL aqueous solution of extract and 50 μL of the appropriate 5 mM para-nitrophenyl substrate made up in buffer at the optimum pH for the enzyme. The reactions were stopped by addition of 70 μL 0.4 M glycine (pH 10.4) during the exponential phase of the reaction, which had been determined at the beginning using uninhibited assays in which water replaced inhibitor. Final absorbances were read at 405 nm using a Versamax microplate reader (Molecular Devices). Assays were carried out in triplicate, and the values given are means of the three replicates per assay. All reactions run in water.

[2] = test system: bovine liver β-galactosidase; experiment: Glycosidase inhibition, laboratory 1: bovine liver β-galactosidase; type: biochemical; conditions: methanol
Excerpt: (§1) The enzymes α-glucosidase (from yeast), β-glucosidases (from almond and bovine liver), α-galactosidase (from coffee beans), β-galactosidase (from bovine liver), α-mannosidase (from Jack bean), β-mannosidase (from snail), α-L-rhamnosidase (from Penicillium decumbens), α-L-fucosidase (from bovine kidney), trehalase (from porcine kidney), β-glucuronidases (from E. coli and bovine liver), amyloglucosidase (from A. niger), para-nitrophenyl glycosides, and various disaccharides were purchased from Sigma-Aldrich Co (St Louis, MO, USA).
(§2) Brush border membranes were prepared from the rat small intestine according to the method of Kessler et al. and were assayed at pH 6.8 for rat intestinal maltase using maltose. For rat intestinal maltase, porcine kidney trehalase, and A. niger amyloglucosidase activities, the reaction mixture contained 25 mM maltose and the appropriate amount of enzyme, and the incubations were performed for 10–30 min at 37 °C. The reaction was stopped by heating at 100 °C for 3 min. After centrifugation (600× g; 10 min), the resulting reaction mixture was added to the Glucose CII-test Wako (Wako Pure Chemical Ind., Osaka, Japan). The absorbance at 505 nm was measured to determine the amount of the released D-glucose. Other glycosidase activities were determined using an appropriate para-nitrophenyl glycoside as substrate at the optimum pH of each enzyme. The reaction mixture contained 2 mM of the substrate and the appropriate amount of enzyme. The reaction was stopped by addition of 400 mM Na2CO3. The released para-nitrophenol was measured spectrometrically at 400 nm. All reactions run in methanol.

[3] = test system: H460; experiment: MTT cell growth inhibition: H460; type: cell-based; conditions: H460 lung carcinoma; for inhibition at 25 µM / GI50: Homo sapiens; for inhibition at 25 µM: NCI-H460, read-out: Percentage (%) Cell Growth Inhibition in response to 25 µM of Drug; for inhibition at 25 µM / Percentage (%) Cell Growth Inhibition in response to 25 µM of Drug: 72 h, MTT; for GI50: NCI-H460, read-out: GI50 = Concentration (µM) that inhibits cell growth by 50%, dose response
Procedure: (§3) All test agents were prepared as stock solutions (20 mM) in dimethyl sulfoxide (DMSO) and stored at −20 °C. Cell lines used in the study included HT29 (colorectal carcinoma); U87, SJ-G2, (glioblastoma); MCF-7, (breast carcinoma); A2780 (ovarian carcinoma); H460 (lung carcinoma); A431 (skin carcinoma); Du145 (prostate carcinoma); BE2-C (neuroblastoma); MiaPaCa-2 (pancreatic carcinoma); and SMA560 (spontaneous murine astrocytoma), together with the one non-tumour-derived normal breast cell line (MCF10A). All cell lines were incubated in a humidified atmosphere 5% CO2 at 37 °C. The cancer cell lines were maintained in Dulbecco’s modified Eagle’s medium (DMEM; Sigma, Australia) supplemented with foetal bovine serum (10%), sodium pyruvate (10 mM), penicillin (100 IUmL^−1), streptomycin (100 µg mL^−1) and L-glutamine (2 mM).
(§4) Growth inhibition was determined by plating cells in duplicate in medium (100 µL) at a density of 2500–4000 cells per well in 96-well plates. On day 0 (24 h after plating), when the cells were in logarithmic growth, medium (100 µL) with or without the test agent was added to each well. After 72 h drug exposure, growth inhibitory effects were evaluated using the MTT (3-(4,5-dimethyltiazol-2-yl)-2,5-diphenyltetrazolium bromide) assay and absorbance read at 540 nm. The percentage growth inhibition was calculated at a fixed concentration of 25 µM, based on the difference between the optical density values on day 0 and those at the end of drug exposure. Each data point is the mean ± the standard error of the mean (SEM) calculated from three replicates which were performed on separate occasions and separate cell line passages.

[4] = test system: Penicillium decumbens α-L-rhamnosidase; experiment: Glycosidase inhibition, laboratory 1: α-L-rhamnosidase; type: biochemical; conditions: methanol
Excerpt: as §1, §2

[5] = test system: rat intestinal maltase α-glucosidase; experiment: Glycosidase inhibition, laboratory 1: rat intestinal maltase; type: biochemical; conditions: methanol; for IC50: rat intestinal maltase α-glucosidase
Excerpt: as §1, §2

[6] = test system: MCF10A; experiment: MTT cell growth inhibition: MCF10A normal breast; type: cell-based; conditions: 72 h; for inhibition at 25 µM: Homo sapiens, MCF-10A, read-out: Percentage (%) Cell Growth Inhibition in response to 25 µM of Drug; for Percentage (%) Cell Growth Inhibition in response to 25 µM of Drug: MCF10A breast (normal), MTT
Procedure: as §3
The non-cancer MCF10A cell line was maintained in DMEM:F12 (1:1) cell culture media, 5% heat-inactivated horse serum, supplemented with penicillin (50 IUmL^−1), streptomycin (50 µg mL^−1), HEPES (20 mM), L-glutamine (2 mM), epidermal growth factor (20 ng mL^−1), hydrocortisone (500 ng mL^−1), cholera toxin (100 ng mL^−1) and insulin ([…]).
as §4

[7] = test system: MCF-7; experiment: MTT cell growth inhibition: MCF-7; type: cell-based; conditions: MCF-7 breast carcinoma; for inhibition at 25 µM / GI50: Homo sapiens; for inhibition at 25 µM: MCF7, read-out: Percentage (%) Cell Growth Inhibition in response to 25 µM of Drug; for inhibition at 25 µM / Percentage (%) Cell Growth Inhibition in response to 25 µM of Drug: 72 h, MTT; for GI50: MCF7, read-out: GI50 = Concentration (µM) that inhibits cell growth by 50%, dose response
Procedure: as §3, §4

[8] = biological target: rice α-glucosidase (Oryza sativa subsp. japonica, UniProt Q653V7); experiment: Glycosidase inhibition, laboratory 1: rice α-glucosidase; type: biochemical; conditions: methanol
Chain of rice α-glucosidase (Q653V7 34-885): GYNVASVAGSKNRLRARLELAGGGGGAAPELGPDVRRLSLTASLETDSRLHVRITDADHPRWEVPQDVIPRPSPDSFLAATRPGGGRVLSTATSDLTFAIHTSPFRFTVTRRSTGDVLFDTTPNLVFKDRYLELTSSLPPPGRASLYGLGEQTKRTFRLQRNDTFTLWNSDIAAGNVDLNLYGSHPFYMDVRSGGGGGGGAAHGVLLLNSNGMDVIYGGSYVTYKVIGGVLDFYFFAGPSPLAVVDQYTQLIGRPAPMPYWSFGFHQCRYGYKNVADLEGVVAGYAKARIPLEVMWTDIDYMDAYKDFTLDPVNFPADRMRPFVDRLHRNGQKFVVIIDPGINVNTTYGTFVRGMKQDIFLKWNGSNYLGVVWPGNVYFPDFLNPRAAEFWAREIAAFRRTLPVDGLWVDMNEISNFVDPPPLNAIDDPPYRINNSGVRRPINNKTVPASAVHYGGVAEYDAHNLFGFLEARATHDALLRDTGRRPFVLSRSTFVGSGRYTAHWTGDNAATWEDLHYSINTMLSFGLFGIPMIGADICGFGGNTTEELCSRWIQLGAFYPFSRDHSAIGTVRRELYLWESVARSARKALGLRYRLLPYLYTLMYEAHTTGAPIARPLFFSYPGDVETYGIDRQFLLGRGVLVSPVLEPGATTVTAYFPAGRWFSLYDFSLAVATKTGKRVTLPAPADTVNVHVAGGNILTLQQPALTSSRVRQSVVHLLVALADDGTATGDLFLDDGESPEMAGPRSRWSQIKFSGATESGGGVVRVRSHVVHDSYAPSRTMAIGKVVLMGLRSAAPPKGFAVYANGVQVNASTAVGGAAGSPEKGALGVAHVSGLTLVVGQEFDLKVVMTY

[9] = biological target: T1, E. coli β-glucuronidase (Escherichia coli, UniProt P05804); experiment: Glycosidase inhibition, laboratory 1: E. coli β-glucuronidase; type: biochemical; conditions: for inhibition at 10 µM: read-out: inhibition % at 10 μM; for inhibition at 100 µM: read-out: inhibition % at 100 μM
T1 construct: purchased Sigma-Aldrich Co
T1 sequence (P05804 whole entry): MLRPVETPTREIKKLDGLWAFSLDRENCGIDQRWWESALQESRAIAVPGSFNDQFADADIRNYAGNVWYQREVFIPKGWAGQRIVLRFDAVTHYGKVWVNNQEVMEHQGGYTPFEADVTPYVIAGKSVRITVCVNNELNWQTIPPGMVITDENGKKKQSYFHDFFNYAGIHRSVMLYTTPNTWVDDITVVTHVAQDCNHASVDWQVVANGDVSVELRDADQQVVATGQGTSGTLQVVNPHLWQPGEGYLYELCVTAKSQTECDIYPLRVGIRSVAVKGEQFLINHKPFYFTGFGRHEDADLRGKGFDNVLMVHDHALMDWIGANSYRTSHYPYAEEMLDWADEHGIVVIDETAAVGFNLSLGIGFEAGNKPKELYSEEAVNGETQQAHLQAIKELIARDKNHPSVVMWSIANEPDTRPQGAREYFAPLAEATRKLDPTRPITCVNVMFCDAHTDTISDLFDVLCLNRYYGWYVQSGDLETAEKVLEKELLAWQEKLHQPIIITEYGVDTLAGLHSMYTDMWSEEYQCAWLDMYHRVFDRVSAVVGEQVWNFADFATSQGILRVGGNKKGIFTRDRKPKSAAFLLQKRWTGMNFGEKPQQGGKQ
Excerpt: as §1, §2

[10] = E. coli β-glucuronidase, 100 μM, methanol

| Compound | inhibition at 25 µM [3] | inhibition % at 100 μM [4] | inhibition % at 100 μM ([5]; rat intestinal maltase) | inhibition at 25 µM [6] | inhibition at 25 µM [7] | % inhibition at ~400 μM [1] | GI50 [3] | GI50 [7] | IC50 [2] | IC50 [5] | inhibition at 100 µM ([8]; 100 μM) | further results |
| --- | --- | --- | --- | --- | --- | --- | --- | --- | --- | --- | --- | --- |
| N[C@@H](Cc1ccc(B(O)O)cc1)C(=O)O [BPA, 4-borono-L-phenylalanine, reference compound] | 7 ± 8% | ^cNI ^d (0%) | ^cNI ^d(0%) | 4 ± 1% | < 0% | – | – | – | – | – | – | % inhibition at ~400 μM ([1]; 400 µM): −0.7%; inhibition % at 100 μM [2]: ^cNI ^d (10.9%) |
| N[C@@H](Cc1ccc(B(O)O)cc1)C(=O)O [^10B-BPA, reference compound] | – | ^cNI ^d (0%) | ^cNI ^d (0%) | – | – | – | – | – | – | – | – | % inhibition at ~400 μM ([1]; 400 µM): −1%; inhibition % at 100 μM [2]: ^cNI ^d (0%); Percentage (%) Cell Growth Inhibition in response to 25 µM of Drug [3]: 8 ± 5%; inhibition % at 100 μM ([8]; 100 μM): ^cNI ^d(0%); Percentage (%) Cell Growth Inhibition in response to 25 µM of Drug [6]: <0%; Percentage (%) Cell Growth Inhibition in response to 25 µM of Drug [7]: 1 ± 3%; inhibition % at 100 μM [9, 10]: ^cNI ^d (2.4%) |
| CC1(C)OB(c2cccc(CN3C(=O)c4c(Cl)c(Cl)c(Cl)c(Cl)c4C3=O)c2)OC1(C)C [meta 3, 4,5,6,7-Tetrachloro-2-(3-(4,4,5,5-tetramethyl-1,3,2-dioxaborolan-2-yl)benzyl)isoindoline-1,3-dione] | 42 ± 6% | – | – | 69 ± 7% | 67 ± 7% | 5.8% | 33 ± 2.3 µM | 23 ± 3.7 µM | – | – | – | inhibition % at 10 μM [2]: ^cNI ^d (12.4%); inhibition % at 10 μM [4]: ^cNI ^d (0%); inhibition % at 10 μM ([5]; rat intestinal maltase): ^cNI ^d (22.1%); inhibition at 10 µM [8]: 5.1%; inhibition at 10 µM [9]: 6.1% |
| CC1(C)OB(c2cccc(NC(=O)c3cc(Cl)c(Cl)c(Cl)c3Cl)c2)OC1(C)C [meta 5, 2,3,4,5-tetrachloro-N-(3-(4,4,5,5-tetramethyl-1,3,2-dioxaborolan-2-yl)phenyl)benzamide] | 18 ± 6% | ^aNI ^b (2.2%) | – | < 0% | 16 ± 4% | −5.7% | – | – | 213 µM | 274 µM | 45.5% | IC50 ([9]; E. coli β-glucuronidase, methanol): 932 µM |
| CC1(C)OB(c2ccccc2NC(=O)c2cc(Cl)c(Cl)c(Cl)c2Cl)OC1(C)C [ortho 5, 2,3,4,5-Tetrachloro-N-(2-(4,4,5,5-tetramethyl-1,3,2-dioxaborolan-2-yl)phenyl)benzamide] | > 100% | – | – | 58 ± 9% | > 100% | −3.5% | 13 ± 1 µM | 12 ± 1.2 µM | – | – | – | inhibition % at 10 μM [2]: ^cNI ^d (0%); inhibition % at 10 μM [4]: ^cNI ^d (0%); inhibition % at 10 μM ([5]; rat intestinal maltase): ^cNI ^d(3%); inhibition at 10 µM [8]: 0%; inhibition at 10 µM ([9]; E. coli β-glucuronidase, 10 μM, methanol): 3.8% |
| CC1(C)OB(c2ccccc2CNC(=O)c2cc(Cl)c(Cl)c(Cl)c2Cl)OC1(C)C [ortho 8, 2,3,4,5-tetrachloro-N-(2-(4,4,5,5-tetramethyl-1,3,2-dioxaborolan-2-yl)benzyl)benzamide] | 0% | ^aNI ^b (6.2%) | – | < 0% | < 0% | −6.3% | – | – | 278 µM | 305 µM | 0% | inhibition at 100 µM [9]: 41.7% |
| CC1(C)OB(c2ccc(CN3C(=O)c4c(Cl)c(Cl)c(Cl)c(Cl)c4C3=O)cc2)OC1(C)C [para 3, 4,5,6,7-Tetrachloro-2-(4-(4,4,5,5-tetramethyl-1,3,2-dioxaborolan-2-yl)benzyl)isoindoline-1,3-dione] | 100 ± 2% | ^aNI ^b (0%) | ^aNI ^b (12.2%) | > 100% | > 100% | 2.1% | 13 ± 0.33 µM | 3 ± 1.3 µM | – | – | 5.6% | inhibition at 100 µM [9]: 2.2% |
| CC1(C)OB(c2ccc(NC(=O)c3cc(Cl)c(Cl)c(Cl)c3Cl)cc2)OC1(C)C [para 5, 2,3,4,5-tetrachloro-N-(4-(4,4,5,5-tetramethyl-1,3,2-dioxaborolan-2-yl)phenyl)benzamide] | 54 ± 2% | ^aNI ^b (14.4%) | – | 2 ± 11% | 42 ± 5% | −2.2% | – | – | 333 µM | 188 µM | 0% | inhibition at 100 µM [9, 10]: 45.5% |
| Borocaptate sodium [BSH, reference compound] | – | – | – | – | – | 31.6% | – | – | – | – | – | inhibition % at 1000 μM ([2]; 1000 μM): ^aNI ^b (0%); Percentage (%) Cell Growth Inhibition in response to 25 µM of Drug [3]: 8 ± 2%; inhibition % at 1000 μM ([4]; 1000 μM): ^aNI ^b (0.2%); inhibition % at 1000 μM ([5]; rat intestinal maltase, 1000 μM): ^aNI ^b(0%); inhibition % at 1000 μM ([8]; 1000 μM): ^aNI ^b(0%); Percentage (%) Cell Growth Inhibition in response to 25 µM of Drug [6]: 8 ± 3%; Percentage (%) Cell Growth Inhibition in response to 25 µM of Drug [7]: 15 ± 3%; inhibition % at 1000 μM ([9]; E. coli β-glucuronidase, 1000 μM, methanol): ^aNI ^b (6%) |
